Results as given in patent US20250195521A1 (Revolution Medicines, Inc., priority 2020, published 2025).

Experiments:
Assay type in all cases: biochemical
KRAS G12C = KRAS G12C (Homo sapiens (Human), UniProt P01116+P62937, G12C); assay: Ras-Raf disruption/FRET/MOA assay (BRAF RBD, Cyclophilin A); conditions: read-out: KRAS G12C FRET IC50
How it was run: (§1)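 Ras-GMPPNP (12.5 nM), BRAF RBD (50 nM) and 25 μM Cyclophilin A were incubated with compound for 3 h at 25° C, then detected 1.5 h with anti-His Eu and anti-GST APC; IC50 values follow from the reduced TR-FRET ratio.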

KRAS G12D = KRAS G12D (Homo sapiens (Human), UniProt P01116+P62937, G12D); assay: as above; conditions: read-out: KRAS G12D FRET IC50
Sequence of KRAS G12D (P01116 other isoform, or with tags, fused parts or gaps G12D): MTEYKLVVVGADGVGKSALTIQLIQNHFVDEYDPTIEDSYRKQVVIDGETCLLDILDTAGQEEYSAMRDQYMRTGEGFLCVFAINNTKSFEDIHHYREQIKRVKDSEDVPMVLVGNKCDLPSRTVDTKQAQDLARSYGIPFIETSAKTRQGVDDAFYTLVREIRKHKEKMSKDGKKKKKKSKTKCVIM
Sequence of KRAS G12D (P62937 whole entry): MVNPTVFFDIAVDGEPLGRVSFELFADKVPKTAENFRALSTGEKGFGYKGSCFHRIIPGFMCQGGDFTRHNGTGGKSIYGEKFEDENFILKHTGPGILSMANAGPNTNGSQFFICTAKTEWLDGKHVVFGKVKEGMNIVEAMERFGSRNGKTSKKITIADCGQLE
How it was run: as §1

KRAS G12S = KRAS G12S (Homo sapiens (Human), UniProt P01116+P62937, G12S); assay: as above; conditions: read-out: KRAS G12S FRET IC50
Sequence of KRAS G12S (P01116 other isoform, or with tags, fused parts or gaps G12S): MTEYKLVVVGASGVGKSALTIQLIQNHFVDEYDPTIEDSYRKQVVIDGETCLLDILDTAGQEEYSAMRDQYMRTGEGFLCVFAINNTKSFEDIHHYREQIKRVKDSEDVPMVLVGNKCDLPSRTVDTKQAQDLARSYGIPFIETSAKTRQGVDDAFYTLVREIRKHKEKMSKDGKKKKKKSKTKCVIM
Sequence of KRAS G12S (P62937 whole entry): as the sequence (P62937 whole entry) above
How it was run: as §1

KRAS G12V = KRAS G12V (Homo sapiens (Human), UniProt P01116+P62937, G12V); assay: as above; conditions: read-out: KRAS G12V FRET IC50
Sequence of KRAS G12V (P01116 other isoform, or with tags, fused parts or gaps G12V): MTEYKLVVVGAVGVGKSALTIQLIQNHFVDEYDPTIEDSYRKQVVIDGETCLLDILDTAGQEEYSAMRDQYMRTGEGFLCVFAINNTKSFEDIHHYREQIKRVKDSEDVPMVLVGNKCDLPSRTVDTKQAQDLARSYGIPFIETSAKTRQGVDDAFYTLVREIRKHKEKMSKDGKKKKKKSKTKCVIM
Sequence of KRAS G12V (P62937 whole entry): as the sequence (P62937 whole entry) above
How it was run: as §1

KRAS G13C = KRAS G13C (Homo sapiens (Human), UniProt P01116+P62937, G13C); assay: as above; conditions: read-out: KRAS G13C FRET IC50
Sequence of KRAS G13C (P01116 other isoform, or with tags, fused parts or gaps G13C): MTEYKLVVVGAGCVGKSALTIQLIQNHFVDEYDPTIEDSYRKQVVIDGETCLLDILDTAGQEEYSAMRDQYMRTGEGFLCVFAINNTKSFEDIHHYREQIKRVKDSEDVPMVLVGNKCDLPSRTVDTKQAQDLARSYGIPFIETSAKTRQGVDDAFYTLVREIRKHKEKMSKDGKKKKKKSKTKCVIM
Sequence of KRAS G13C (P62937 whole entry): as the sequence (P62937 whole entry) above
How it was run: as §1

KRAS G13D = KRAS G13D (Homo sapiens (Human), UniProt P01116+P62937, G13D); assay: as above; conditions: read-out: KRAS G13D FRET data IC50
Sequence of KRAS G13D (P01116 other isoform, or with tags, fused parts or gaps G13D): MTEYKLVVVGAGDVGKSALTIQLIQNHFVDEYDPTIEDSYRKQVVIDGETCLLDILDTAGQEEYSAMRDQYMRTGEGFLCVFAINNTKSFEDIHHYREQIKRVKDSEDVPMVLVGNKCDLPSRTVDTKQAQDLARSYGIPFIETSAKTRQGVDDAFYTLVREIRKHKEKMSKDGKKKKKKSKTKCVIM
Sequence of KRAS G13D (P62937 whole entry): as the sequence (P62937 whole entry) above
How it was run: as §1

KRAS Q61H = KRAS Q61H (Homo sapiens (Human), UniProt P01116+P62937, Q61H); assay: as above
Sequence of KRAS Q61H (P01116 other isoform, or with tags, fused parts or gaps Q61H): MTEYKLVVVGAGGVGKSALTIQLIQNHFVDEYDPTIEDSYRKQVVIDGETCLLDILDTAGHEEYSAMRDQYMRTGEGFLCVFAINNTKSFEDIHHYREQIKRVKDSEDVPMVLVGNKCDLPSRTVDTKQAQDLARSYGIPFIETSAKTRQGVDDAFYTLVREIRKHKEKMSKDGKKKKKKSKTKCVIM
Sequence of KRAS Q61H (P62937 whole entry): as the sequence (P62937 whole entry) above
How it was run: as §1

NRAS G12C = NRAS G12C (Homo sapiens (Human), UniProt P01111+P62937, G12C); assay: as above; conditions: read-out: NRAS G12C FRET data IC50
Sequence of NRAS G12C (P01111 whole entry G12C): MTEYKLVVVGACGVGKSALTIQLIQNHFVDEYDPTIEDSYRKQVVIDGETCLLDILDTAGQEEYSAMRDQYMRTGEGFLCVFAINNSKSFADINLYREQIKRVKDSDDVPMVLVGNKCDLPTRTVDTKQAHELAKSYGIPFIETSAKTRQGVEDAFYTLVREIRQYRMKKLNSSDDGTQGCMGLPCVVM
Sequence of NRAS G12C (P62937 whole entry): as the sequence (P62937 whole entry) above
How it was run: (§2)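 25 μM tagless Cyclophilin A, 12.5 nM His6-Ras-GMPPNP and 50 nM GST-BRAF RBD in HEPES pH 7.3 buffer with 5 mM MgCl2, with compound (10-point 3-fold series from 30 μM final) for 3 h at 25 °C. Anti-His Eu and anti-GST APC then added for 1.5 h. IC50 from TR-FRET ratio decrease versus DMSO.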

NRAS Q61K = NRAS Q61K (Homo sapiens (Human), UniProt P01111+P62937, Q61K); assay: as above
Sequence of NRAS Q61K (P01111 whole entry Q61K): as the sequence (P01111 whole entry G12C) above, with C12G, Q61K counted along it
Sequence of NRAS Q61K (P62937 whole entry): as the sequence (P62937 whole entry) above
How it was run: as §2

NRAS Q61R = NRAS Q61R (Homo sapiens (Human), UniProt P01111+P62937, Q61R); assay: as above
Sequence of NRAS Q61R (P01111 whole entry Q61R): as the sequence (P01111 whole entry G12C) above, with C12G, Q61R counted along it
Sequence of NRAS Q61R (P62937 whole entry): as the sequence (P62937 whole entry) above
How it was run: as §2

NRAS WT = NRAS WT (Homo sapiens (Human), UniProt P01111+P62937); assay: as above
Sequence of NRAS WT (P01111 whole entry): as the sequence (P01111 whole entry G12C) above, with C12G counted along it
Sequence of NRAS WT (P62937 whole entry): as the sequence (P62937 whole entry) above
How it was run: as §2

[1] = target: K-Ras G12C(GMP-PNP) binding to BRAF RBD (Homo sapiens (Human), UniProt P01116+P62937, G12C); assay: Disruption of BRAF RBD interaction with K-Ras (FRET / MOA assay), K-Ras G12C; conditions: read-out: KRAS G12C FRET IC50
Sequence of K-Ras G12C(GMP-PNP) binding to BRAF RBD (P01116 other isoform, or with tags, fused parts or gaps G12C): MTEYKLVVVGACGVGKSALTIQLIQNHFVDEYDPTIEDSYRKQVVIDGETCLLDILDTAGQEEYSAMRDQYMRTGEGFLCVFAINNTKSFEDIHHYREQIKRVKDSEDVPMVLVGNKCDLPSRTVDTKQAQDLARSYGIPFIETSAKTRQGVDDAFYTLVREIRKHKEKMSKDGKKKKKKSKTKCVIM
Sequence of K-Ras G12C(GMP-PNP) binding to BRAF RBD (P62937 whole entry): as the sequence (P62937 whole entry) above
How it was run: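 Compounds promote ternary complex of nucleotide-loaded Ras (here K-Ras G12C·GMP-PNP; other Ras mutants substituted) with cyclophilin A, disrupting BRAF RBD binding. 10-point 3-fold series from 30 μM final, 3 h at 25 °C, then anti-His Eu (10 nM) and anti-GST APC (50 nM) for 1.5 h. TR-FRET ratio decrease versus DMSO gave IC50.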

Sequence of KRAS G12C (P01116-2 other isoform, or with tags, fused parts or gaps G12C): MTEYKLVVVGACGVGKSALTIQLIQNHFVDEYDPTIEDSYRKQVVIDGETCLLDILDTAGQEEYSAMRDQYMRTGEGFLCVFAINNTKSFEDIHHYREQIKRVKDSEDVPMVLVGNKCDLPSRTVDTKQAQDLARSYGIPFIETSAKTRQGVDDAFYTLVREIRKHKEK
Sequence of KRAS G12C (P62937 whole entry): as the sequence (P62937 whole entry) above

| IC50 (KRAS G12C) [nM] | IC50 (KRAS G12D) [nM] | IC50 (KRAS G12S) [nM] | IC50 (KRAS G12V) [nM] | IC50 (KRAS G13C) [nM] | IC50 (KRAS G13D) [nM] | IC50 (KRAS Q61H) [nM] | IC50 (NRAS G12C) [nM] | IC50 (NRAS Q61K) [nM] | IC50 (NRAS Q61R) [nM] | IC50 (NRAS WT) [nM] | IC50 [1] [nM] | Structure (SMILES) |
| --- | --- | --- | --- | --- | --- | --- | --- | --- | --- | --- | --- | --- |
| 100 to 1000 | > 10000 | 1000 to 10000 | 1000 to 10000 | 100 to 1000 | 1000 to 10000 | 100 to 1000 | 1000 to 10000 | 1000 to 10000 | 1000 to 10000 | 1000 to 10000 | 10 to 100 | CCn1c(-c2cccnc2[C@H](C)OC)c2c3cc(ccc31)-c1cc(O)cc(c1)C[C@H](NC(=O)[C@@H]1[C@H]3C[C@H]3CN1C(C)=O)C(=O)N1CCC[C@H](N1)C(=O)OCC(C)(C)C2 [Compound A207] |
| 100 to 1000 | 1000 to 10000 | 100 to 1000 | 100 to 1000 | 10 to 100 | 100 to 1000 | 10 to 100 | 100 to 1000 | 100 to 1000 | 1000 to 10000 | 100 to 1000 | < 10 | CCn1c(-c2cccnc2[C@H](C)OC)c2c3cc(ccc31)-c1cc(O)cc(c1)C[C@H](NC(=O)[C@@H]1[C@@H](C)CCCN1C(C)=O)C(=O)N1CCC[C@H](N1)C(=O)OCC(C)(C)C2 [Compound A324] |
| 100 to 1000 | 1000 to 10000 | 100 to 1000 | 100 to 1000 | 100 to 1000 | 100 to 1000 | 100 to 1000 | 100 to 1000 | 100 to 1000 | 100 to 1000 | 100 to 1000 | – | CCn1c(-c2cccnc2[C@H](C)OC)c2c3cc(ccc31)-c1csc(n1)C[C@H](NC(=O)C1(F)CCC1)C(=O)N1CCC[C@H](N1)C(=O)OCC(C)(C)C2 [Compound A361] |
| 100 to 1000 | 1000 to 10000 | 100 to 1000 | 100 to 1000 | 100 to 1000 | 1000 to 10000 | 100 to 1000 | 100 to 1000 | 100 to 1000 | 1000 to 10000 | 100 to 1000 | – | CCn1c(-c2cccnc2[C@H](C)OC)c2c3cc(ccc31)-c1csc(n1)C[C@H](NC(=O)C1(F)CC1)C(=O)N1CCC[C@H](N1)C(=O)OCC(C)(C)C2 [Compound A362] |
| 10 to 100 | 100 to 1000 | 10 to 100 | 100 to 1000 | 10 to 100 | 100 to 1000 | 10 to 100 | 10 to 100 | 100 to 1000 | 100 to 1000 | 10 to 100 | 100 to 1000 | CCn1c(-c2cccnc2[C@H](C)OC)c2c3cc(ccc31)-c1cc(O)cc(c1)C[C@H](NC(=O)[C@H](C(C)C)N(C)C(=O)C13CC(CO1)C3)C(=O)N1CCC[C@H](N1)C(=O)OCC(C)(C)C2 [Compound A406] |
| 100 to 1000 | 1000 to 10000 | 1000 to 10000 | 1000 to 10000 | 100 to 1000 | 1000 to 10000 | 100 to 1000 | 100 to 1000 | 100 to 1000 | 100 to 1000 | 100 to 1000 | – | CCn1c(-c2cc(N3CCN(C)CC3)cnc2[C@H](C)OC)c2c3cc(ccc31)-c1csc(n1)C[C@H](NC(=O)[C@H](C(C)C)N(C)C(=O)[C@H]1CCCS1(=O)=O)C(=O)N1CCC[C@H](N1)C(=O)OCC(C)(C)C2 [Compound A439] |
| 100 to 1000 | 1000 to 10000 | 1000 to 10000 | 1000 to 10000 | 1000 to 10000 | 1000 to 10000 | 100 to 1000 | 100 to 1000 | 100 to 1000 | 100 to 1000 | 100 to 1000 | 10 to 100 | CCn1c(-c2cc(N3CCN(C)CC3)cnc2[C@H](C)OC)c2c3cc(ccc31)-c1csc(n1)C[C@H](NC(=O)[C@H](C(C)C)N(C)C(=O)[C@@H]1CCCS1(=O)=O)C(=O)N1CCC[C@H](N1)C(=O)OCC(C)(C)C2 [Compound A440] |
| 100 to 1000 | 1000 to 10000 | 1000 to 10000 | 1000 to 10000 | 100 to 1000 | 1000 to 10000 | 100 to 1000 | 100 to 1000 | 100 to 1000 | 1000 to 10000 | 1000 to 10000 | 100 to 1000 | CCn1c(-c2cccnc2[C@H](C)OC)c2c3cc(ccc31)-c1csc(n1)C[C@H](NC(=O)[C@H](C(C)C)N(C)C(=O)N1C[C@H]3CN(C)CC[C@H]31)C(=O)N1CCC[C@H](N1)C(=O)OCC(C)(C)C2 [Compound A462] |
| 100 to 1000 | 100 to 1000 | 100 to 1000 | 1000 to 10000 | 100 to 1000 | 100 to 1000 | 100 to 1000 | 100 to 1000 | 1000 to 10000 | 1000 to 10000 | 100 to 1000 | – | CCn1c(-c2cccnc2[C@H](C)OC)c2c3cc(ccc31)-c1csc(n1)C[C@H](NC(=O)[C@H](C(C)C)N(C)C(=O)N1CCC[C@@H]1CN(C)C)C(=O)N1CCC[C@H](N1)C(=O)OCC(C)(C)C2 [Compound A518] |
| 100 to 1000 | 1000 to 10000 | 100 to 1000 | 1000 to 10000 | 100 to 1000 | 1000 to 10000 | 100 to 1000 | 100 to 1000 | 100 to 1000 | 100 to 1000 | 100 to 1000 | – | CCn1c(-c2cccnc2[C@H](C)OC)c2c3cc(ccc31)-c1csc(n1)C[C@H](NC(=O)[C@H](C(C)C)N(CCc1ccncc1)C1CC1)C(=O)N1CCC[C@H](N1)C(=O)OCC(C)(C)C2 [Compound A556] |
| 100 to 1000 | 100 to 1000 | 100 to 1000 | 100 to 1000 | 100 to 1000 | 100 to 1000 | 10 to 100 | 10 to 100 | 100 to 1000 | 100 to 1000 | 100 to 1000 | – | CCn1c(-c2cccnc2[C@H](C)OC)c2c3cc(ccc31)-c1csc(n1)C[C@H](NC(=O)[C@H](C(C)C)N(C)C(=O)N1CC[C@@H](F)[C@H](N)C1)C(=O)N1CCC[C@H](N1)C(=O)OCC(C)(C)C2 [Compound A559] |
| 100 to 1000 | 1000 to 10000 | 100 to 1000 | 100 to 1000 | 100 to 1000 | 1000 to 10000 | 100 to 1000 | 100 to 1000 | 100 to 1000 | 100 to 1000 | 100 to 1000 | – | CCn1c(-c2cccnc2[C@H](C)OC)c2c3cc(ccc31)-c1csc(n1)C[C@H](NC(=O)[C@H](C(C)C)N(C)C(=O)[C@@H]1OCC[C@@H]1c1ccccc1)C(=O)N1CCC[C@H](N1)C(=O)OCC(C)(C)C2 [Compound A585] |
| 10 to 100 | 100 to 1000 | 100 to 1000 | 100 to 1000 | 100 to 1000 | 100 to 1000 | 100 to 1000 | 100 to 1000 | 100 to 1000 | 100 to 1000 | 100 to 1000 | – | CCn1c(-c2cccnc2[C@H](C)OC)c2c3cc(ccc31)-c1cccc(c1)C[C@H](NC(=O)[C@H](C(C)C)N(C)C(=O)[C@@H]1OCC[C@@H]1c1ccccc1)C(=O)N1CCC[C@H](N1)C(=O)OCC(C)(C)C2 [Compound A586] |
| 1000 to 10000 | 1000 to 10000 | 1000 to 10000 | 1000 to 10000 | 1000 to 10000 | 1000 to 10000 | 100 to 1000 | 1000 to 10000 | 1000 to 10000 | 1000 to 10000 | 1000 to 10000 | – | CCn1c(-c2cccnc2[C@H](C)OC)c2c3cc(ccc31)-c1csc(n1)C[C@H](NC(=O)[C@H](C(C)C)N(C)C(=O)N1CCC[C@H]1c1ccccc1)C(=O)N1CCC[C@H](N1)C(=O)OCC(C)(C)C2 [Compound A599] |
| 10 to 100 | 100 to 1000 | 100 to 1000 | 100 to 1000 | 10 to 100 | 100 to 1000 | 10 to 100 | 10 to 100 | 100 to 1000 | 100 to 1000 | 100 to 1000 | – | CCn1c(-c2cccnc2[C@H](C)OC)c2c3cc(ccc31)-c1cc(O)cc(c1)C[C@H](NC(=O)[C@H](C(C)C)N(C)C(=O)[C@]1(F)CCN(C(=O)OC)C1)C(=O)N1CCC[C@H](N1)C(=O)OCC(C)(C)C2 [Compound A616] |
